Key:
[1] = tested on: human pancreatic progenitor cells; assay: Inverted microscopy of human ductal/progenitor tissue cultures (Example 4); assay type: cell-based
[2] = tested on: human pancreatic ductal tissue cultures; assay: Insulin production by ELISA, human ductal tissue cultures (Example 3); assay type: cell-based
Protocol: Samples are 5 μg total protein in duplicate and measured by ELISA assay.
(§1) Values are mean insulin units (of duplicate samples) as measured by ELISA assay.
(§2) Human pancreatic tissue was treated as described in Example 1 and Insulin production was measured by ELISA assay. FIGS. 5 and 6 show the results of this experiment to show a dose response and to again compare the effect of HIP2 on the two different fractions of tissue as compared to the hamster INGAP sequence and a scrambled negative peptide sequence. […] The results in FIG. 5 were generated using 5 μg of each peptide, while the results in FIG. 6 were acquired using 0.002 μg of each peptide.

[3] = tested on: human pancreatic islet tissue cultures; assay: Insulin production by ELISA, human islet tissue cultures (Example 3); assay type: cell-based; details: vs SEQ ID NO:1 and SEQ ID NO:5
Protocol: Samples are 0.002 μg total protein in duplicate and measured by ELISA assay.
as §1, §2

[4] = tested on: pancreatic islets of treated mice; assay: Quantitative immunohistochemistry image analysis of mouse pancreata (Example 7); assay type: in vivo; details: vs control
Description: The islet mass of the placebo group was 854,362 μm (2) compared with 2,161,782 μm (2) in HIP-treated mice.
Islet size was not different between HIP treated and control group, whereas, islet number and mass was increased.

[5] = tested on: streptozocin-induced diabetic mouse; assay: Streptozocin-induced diabetic mouse (Example 6); assay type: in vivo
Description: The streptozocin-induced diabetic mouse is a convenient animal model of type 1 diabetes because researchers are able to chemically induce diabetes under controlled conditions rather than waiting for mice to become diabetic naturally or by forcing diabetes through prescribed obesity. Based on experience with the streptozocin model in the rat, a high degree of variability was anticipated for the induction of the disease in mice and therefore 60 mice were induced with streptozocin. Mice were injected intraperitoneally with streptozocin at 40 mg/kg in citrate buffer, pH4.5, on 5 consecutive days in an attempt to render them diabetic. A mouse was considered diabetic once its blood glucose level was greater than 16.7 mmol/L (300 mg/dL) for at least 1 week. If the blood glucose level of any animal became too high (>400 mg/dL) the animal was treated with an effective amount of insulin. In this example, 60 male mice, ranging from 6-8 weeks old at the outset of the study, were treated with streptozocin as described above. Those mice that were declared diabetic were then used to test the effectiveness of HIP2 as compared to other test agents.
Animals were group housed in compliance with the National Research Council “Guide for the Care and Use of Laboratory Animals”. The animals received 12 hours light/12 hours dark, except when room lights were turned on during the dark cycle to accommodate study procedures. Room temperature was maintained between 18 to 26° C. at all times. Relative humidity was maintained between 30-70% at all times. All animals were given access to Harlan Teklad Rodent Diet or equivalent and tap water via water bottle. Animals were allowed to acclimate to their new environment for a minimum of 7 days prior to first dosing.
Mice were randomly divided and assigned to study groups. Each study group was assigned treatment with one of 5 test agents (see Treatment section below). Prior to being treated, each mouse was tested for diabetes via monitoring their blood glucose levels. After confirmation that the mice were diabetic (blood glucose levels greater than 16.7 mmol/L (300 mg/dL) for at least 1 week) the mice were dosed with their respective test agent.
Each study group received doses of one of the following test agents: HIP2, HIP1, HIP, Hamster INGAP (SEQ ID NO:1) or isotonic saline “Vehicle” (0.9% NaCl) (negative control). Mice were given doses of their respective agent interperitoneally twice daily (am and pm, +/−2 hours for each administration) at 250 ug/dose, in 100 ul dose volume, for 28 consecutive days. Test agents were prepared once daily by dissolving the appropriate amount of test agent in isotonic saline to result in a 2.5 mg/ml solution. Blood glucose levels were tested every 3 days, at the same time each day, using a glucometer. If the blood glucose level in any animal became too high, the animal was treated with insulin. At the end of the treatment, all surviving animals were euthanized by CO2 asphyxiation following terminal blood collection. Blood samples were collected under CO2 cardiocentesis. The plasma was separated and then frozen at −80° C. For histological analysis, the pancreas from each mouse was removed and snap-frozen.
(§3) Blood glucose levels are measured every 3 days and tracked to evaluate differences in glucose levels.

NOD mice = assay: NOD mouse model of type 1 diabetes (Example 5); assay type: in vivo; details: 250 ug/dose i.p. twice daily, 28 days, with anti-CD3, vs other test agents
Description: The non-obese diabetic (NOD) mouse strain has long been studied as an excellent model of type 1 diabetes because it spontaneously develops a disease that is very similar to the human condition. Diabetes in NOD mice is mediated by inflammatory autoreactive T cells that recognize pancreatic islet antigens and escape central and peripheral tolerance. In a parental colony of NOD mice, incidence of diabetes in female NOD mice is typically 75-90% by 30 weeks but may exceed 90% in some cohorts. In this example, 50 female NOD mice, ranging from 13-14 weeks old at the outset of the study, are used to test the effectiveness of HIP2 as compared to other test agents. Due to the unexpected variability of the degree of onset of disease, the number used in this example (50 female mice) is considered to be the minimum needed to result in a sufficient number of mice that will onset with disease within the timeframe of the study.
Animals were group housed in compliance with the National Research Council “Guide for the Care and Use of Laboratory Animals”. The animals received 12 hours light/12 hours dark, except when room lights were turned on during the dark cycle to accommodate study procedures. Room temperature was maintained between 18 to 26° C. at all times. […]
as §3

[6] = streptozocin mice, 250 ug/dose i.p. twice daily, 28 days, vs other test agents

## HIP2: Human proIslet Peptide, fragment of human REG3A, in purified, synthetic, or recombinant form (SEQ ID NO:4) (IGLHDPTQGTEPNG; Fragment of naturally occurring human REG3 protein)
[1]; after treatment, just before lysis and RIA
  morphology of ductal tissue culture fraction (FIG. 4): Morphological changes show islet like structure
[1]; day 2 of treatment (day 12)
  morphology of progenitor tissue cultures (FIG. 7A): starting to bud at one end where a progenitor cell resides
[1]; day 6 of treatment (day 18)
  morphology of progenitor tissue cultures (FIG. 7B): darkening of the budding portion of the ductal epithelial cyst indicates the differentiation of cells
[1]; pancreatic ductal tissue fraction culture, six days of culture with peptide
  islet structure formation (micrograph, FIG. 4A): New islet structure has formed
[2]; ductal cultures
  effect of the higher concentration on insulin production: more profound effect
[2]; ductal cultures, after 10 days, Rosenberg protocol, 5 μg, vs SEQ ID NO:1 and SEQ ID NO:5
  insulin production (FIG. 5): increased insulin production
[2]; ductal cultures, two concentrations (3 μM and 1 mM), vs SEQ ID NO:1 and SEQ ID NO:5
  insulin production (FIG. 8B): increased insulin production
[2]; in each of the examples (ductal and islet fractions)
  induction of insulin production compared with INGAP or scrambled peptide: more effectively
[3]; after 10 days, Rosenberg protocol, 0.002 μg
  insulin production (FIG. 6): increased insulin production
[3]; two concentrations (3 μM and 1 mM)
  insulin production (FIG. 8A): increased insulin production
[4]
  total islet mass (qualitative): increased total islet mass
  total islet number (qualitative): increased total islet number
[5]
  time at which mice were completely insulin-free: ≤ 21 days
[5]; streptozocin mice
  glucose levels from baseline compared with control: significant reduction
[5]; [6]
  blood glucose levels: pronounced reduction
  insulinitis in the pancreas: decreased showing of insulinitis
[5]; streptozocin mice, compared to placebo
  insulin requirements (and rate of decrease): Significant reductions
NOD mice
  blood glucose levels: pronounced reduction
  insulinitis in pancreas: decreased showing of insulinitis

Reference: US8785400B2, “Methods and compositions relating to islet cell neogenesis” (CureDM Group Holdings, LLC, priority 2006, dated 2014)
